# Test results: PMC3914206
# Experiments:
# Format in all cases: binding
# Details in all cases: Compound Concentration 10 µM
# [1] = target: T1, panel of 442 kinases (Homo sapiens, UniProt Q8IW41)
# T1 construct: purchased KINOMEscan
# T1 sequence (Q8IW41 1-473): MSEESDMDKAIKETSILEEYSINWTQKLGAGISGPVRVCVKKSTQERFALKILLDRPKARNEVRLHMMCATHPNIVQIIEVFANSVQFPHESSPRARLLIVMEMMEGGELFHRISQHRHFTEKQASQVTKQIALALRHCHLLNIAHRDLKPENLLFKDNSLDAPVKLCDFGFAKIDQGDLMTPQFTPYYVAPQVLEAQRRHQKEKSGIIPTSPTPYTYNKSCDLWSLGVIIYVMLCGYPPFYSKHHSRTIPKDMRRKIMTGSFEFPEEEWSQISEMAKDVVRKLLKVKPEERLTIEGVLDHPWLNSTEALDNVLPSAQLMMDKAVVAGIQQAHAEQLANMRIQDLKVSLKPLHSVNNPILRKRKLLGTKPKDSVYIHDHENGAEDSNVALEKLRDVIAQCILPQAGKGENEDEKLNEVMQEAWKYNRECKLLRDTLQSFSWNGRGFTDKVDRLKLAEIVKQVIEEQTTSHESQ
# Description: (§1) We assessed the selectivity of members of this scaffold using the KINOMEscan methodology across a near comprehensive panel of 442 kinases [[18,27]].
# [2] = target: T2, panel of 442 kinases (Homo sapiens, UniProt P49760)
# T2 construct: purchased KINOMEscan
# Description: as §1
# [3] = target: T3, panel of 442 kinases (Homo sapiens, UniProt Q8N5S9)
# T3 construct: purchased KINOMEscan
# Description: as §1
# T2 sequence (P49760 whole entry): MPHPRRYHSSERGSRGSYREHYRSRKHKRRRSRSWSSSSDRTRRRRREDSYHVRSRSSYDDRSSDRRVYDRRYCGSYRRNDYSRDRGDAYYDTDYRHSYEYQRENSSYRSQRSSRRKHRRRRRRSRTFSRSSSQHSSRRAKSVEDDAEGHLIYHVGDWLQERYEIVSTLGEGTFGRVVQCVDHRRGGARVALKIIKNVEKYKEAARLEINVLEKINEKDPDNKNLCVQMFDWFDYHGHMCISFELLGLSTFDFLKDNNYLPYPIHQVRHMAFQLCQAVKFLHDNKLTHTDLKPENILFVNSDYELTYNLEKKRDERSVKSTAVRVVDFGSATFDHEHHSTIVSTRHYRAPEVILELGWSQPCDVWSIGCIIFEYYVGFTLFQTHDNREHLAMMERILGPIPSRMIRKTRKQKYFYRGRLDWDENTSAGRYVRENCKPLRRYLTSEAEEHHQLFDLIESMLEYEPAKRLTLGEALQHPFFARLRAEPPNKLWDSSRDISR
# T3 sequence (Q8N5S9 whole entry): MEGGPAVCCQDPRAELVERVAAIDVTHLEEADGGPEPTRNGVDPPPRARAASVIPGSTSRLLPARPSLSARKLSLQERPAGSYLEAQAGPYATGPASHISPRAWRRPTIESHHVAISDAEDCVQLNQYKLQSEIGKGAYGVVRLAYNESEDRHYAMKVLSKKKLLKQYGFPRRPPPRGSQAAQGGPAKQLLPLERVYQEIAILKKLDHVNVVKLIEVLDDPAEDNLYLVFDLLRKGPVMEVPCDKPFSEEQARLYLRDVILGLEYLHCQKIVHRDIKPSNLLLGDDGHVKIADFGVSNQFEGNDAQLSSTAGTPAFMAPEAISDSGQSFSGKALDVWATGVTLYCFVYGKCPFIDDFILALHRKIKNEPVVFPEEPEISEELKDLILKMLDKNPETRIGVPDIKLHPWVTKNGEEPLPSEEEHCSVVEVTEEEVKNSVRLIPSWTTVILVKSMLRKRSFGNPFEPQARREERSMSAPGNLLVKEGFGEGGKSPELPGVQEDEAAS
SMILES,KINOMEscan: MAPKAPK5 [1],KINOMEscan: CLK2 [2],KINOMEscan: CAMKK1 [3]
COc1cc(C(=O)N2CCC(N3CCN(C)CC3)CC2)ccc1Nc1ncc2c(n1)N(C)c1ccccc1C(=O)N2C [15 (LRRK2-IN-1)],97,72,73
COc1cc(C(=O)N2CCC(N3CCN(C)CC3)CC2)ccc1Nc1ncc2c(n1)N1CCc3cccc(c31)C(=O)N2C [Compound 24],,25,
"COc1cc(C(=O)N2CCC(N3CCN(C)CC3)CC2)ccc1Nc1ncc2c(n1)N(C1CCCC1)c1ccccc1C(=O)N2C [Compound 25, 11-cyclopentyl-2-((2-methoxy-4-(4-(4-methylpiperazin-1-yl)piperidine-1-carbonyl)phenyl)amino)-5-methyl-5H-benzo[e]pyrimido[5,4-b][1,4]diazepin-6(11H)-one]",96,79,99
CCOc1cc(C(=O)N2CCC(N3CCN(C)CC3)CC2)ccc1Nc1ncc2c(n1)N(C1CCCC1)c1ccccc1C(=O)N2C [Compound 26],100,86,100
